Where two headings read alike, the source gives them in different places.
Tests used:
[1] = test system: thymocytes of surrenalectomized rats; experiment: Antiglucocorticoidal activity, incorporation of tritiated uridine in thymocytes; format: cell-based; conditions: for % inhibition of effect of Dexamethasone (symbol) / inhibition at 1 µM: 5 × 10^-8 M dexamethasone + test product 10^-6 M; for inhibition at 0.1 µM / inhibition at 0.01 µM / inhibition at 1 µM: Rattus norvegicus, Thymocyte; for inhibition at 0.1 µM: 5 × 10^-8 M dexamethasone + test product 10^-7 M; for inhibition at 0.01 µM: 5 × 10^-8 M dexamethasone + test product 10^-8 M; for opposition to the effect of dexamethasone on tritiated uridine incorporation (in words): with 5×10^-8 M dexamethasone
Protocol: III. Antiglucocorticoidal Activity
The test used was that of Dausse et al [Molecular Pharmacology, Vol. 13 (1977), p. 948-955] entitled "The relationship between glucocorticoid structure and effects upon thymocytes" for […] thymocytes. The thymocytes of surrenalectomized rats were incubated at 37° C. for 3 hours in a nutritive medium containing 5×10^-8 M of dexamethasone in the presence or absence of the test compound at different concentrations. Tritiated uridine was added and incubation was continued for one hour. The incubates were cooled and treated with a 5% trifluoroacetic acid solution and the mixture was filtered with Whatman GF/A paper. The filter was washed 3 times with a 5% trifluoroacetic acid solution and retained radioactivity on the filter was determined.

[2] = target: T1, Androgen receptor of prostate of rats (Rattus norvegicus, UniProt P15207); experiment: Androgen receptor binding (displacement of tritiated product P); conditions: conclusion
T1 construct: The prostates were removed, weighed and homogenized at 0° C; from tissue; host or cells: rat prostate, 105,000 g supernatant (castrated male Sprague-Dawley rats)
T1 sequence (P15207 1-902): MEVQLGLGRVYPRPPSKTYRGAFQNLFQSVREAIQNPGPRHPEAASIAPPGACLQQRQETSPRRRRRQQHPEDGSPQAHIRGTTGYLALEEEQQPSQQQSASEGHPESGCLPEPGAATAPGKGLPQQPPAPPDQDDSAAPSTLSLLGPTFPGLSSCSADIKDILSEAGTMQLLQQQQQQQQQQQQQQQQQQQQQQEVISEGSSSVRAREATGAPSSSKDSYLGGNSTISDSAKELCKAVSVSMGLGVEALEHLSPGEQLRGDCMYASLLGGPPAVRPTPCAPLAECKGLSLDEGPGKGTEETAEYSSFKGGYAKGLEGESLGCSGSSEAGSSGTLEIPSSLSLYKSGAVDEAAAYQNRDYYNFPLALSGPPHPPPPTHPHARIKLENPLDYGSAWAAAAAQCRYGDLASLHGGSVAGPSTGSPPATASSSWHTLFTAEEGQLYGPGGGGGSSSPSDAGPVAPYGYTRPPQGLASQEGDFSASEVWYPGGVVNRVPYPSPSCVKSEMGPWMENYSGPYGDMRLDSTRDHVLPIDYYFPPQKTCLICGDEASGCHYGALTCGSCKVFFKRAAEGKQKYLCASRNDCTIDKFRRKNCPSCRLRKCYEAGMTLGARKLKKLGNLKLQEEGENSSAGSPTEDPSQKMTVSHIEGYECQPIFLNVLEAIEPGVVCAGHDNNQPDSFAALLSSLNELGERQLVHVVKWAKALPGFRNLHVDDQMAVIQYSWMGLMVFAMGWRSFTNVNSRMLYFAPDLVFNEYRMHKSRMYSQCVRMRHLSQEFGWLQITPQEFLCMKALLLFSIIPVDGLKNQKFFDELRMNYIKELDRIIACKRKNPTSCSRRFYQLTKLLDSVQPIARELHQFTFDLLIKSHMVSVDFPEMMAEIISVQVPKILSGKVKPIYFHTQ
Protocol: B. Androgen receptor of prostate of rats
Male Sprague-Dawley EPOS rats weighing of 160 to 200 g were castrated and 24 hours later, the animals were killed. The prostates were removed, weighed and homogenized at 0° C. with a polytetrafluoroethylene-glass Potter with a buffered TS solution (Tris, 10 mM, 0.25M Saccharose, HCl-pH of 7.4) using 1 g of tissue per 5 ml of TS. The homogenate was then ultracentrifuged at 105,000 g for 60 […] (T) of product P or 17α-methyl-Δ^4,9,11 -estratriene-17β-ol-3-one in the presence of increasing concentration (0-1,000×10^-9 M) of either cold P, cold testosterone or the test compound. The concentration of tied tritiated (B) was measured for each incubate by the technique of adsorption on carbon-dextran.
(§1) The calculation of the relative affinity of […] (ARL) was identical for all of the above receptor tests. One traced the following two curves: the percentage of tied tritiated hormone B/T as a function of the logarithm of the cold hormone concentration and B/T as a function of the logarithm of the concentration of the cold test product. One determined the line of the equation. [formula]
(§2) The intersection of the I50 line and the curves permits one to determine the concentrations of the cold hormone of the reference (CH) and the cold test compound (CX) which inhibit by 50% the tieing of tritiated hormone with the receptor. The relative affinity of tieing (ARL) of the test product was determined by the equation: [formula]

[3] = target: T2, Progestogen receptor of the uterus of rabbits (Oryctolagus cuniculus, UniProt P06186); experiment: Progestogen receptor binding (displacement of tritiated product R); design: species or system rabbit; conditions: conclusion
T2 construct: The uterus was removed, weighed and homogenized at 0° C; from tissue; host or cells: rabbit uterus, 105,000 g supernatant (estradiol-primed immature rabbits)
T2 sequence (P06186 1-930): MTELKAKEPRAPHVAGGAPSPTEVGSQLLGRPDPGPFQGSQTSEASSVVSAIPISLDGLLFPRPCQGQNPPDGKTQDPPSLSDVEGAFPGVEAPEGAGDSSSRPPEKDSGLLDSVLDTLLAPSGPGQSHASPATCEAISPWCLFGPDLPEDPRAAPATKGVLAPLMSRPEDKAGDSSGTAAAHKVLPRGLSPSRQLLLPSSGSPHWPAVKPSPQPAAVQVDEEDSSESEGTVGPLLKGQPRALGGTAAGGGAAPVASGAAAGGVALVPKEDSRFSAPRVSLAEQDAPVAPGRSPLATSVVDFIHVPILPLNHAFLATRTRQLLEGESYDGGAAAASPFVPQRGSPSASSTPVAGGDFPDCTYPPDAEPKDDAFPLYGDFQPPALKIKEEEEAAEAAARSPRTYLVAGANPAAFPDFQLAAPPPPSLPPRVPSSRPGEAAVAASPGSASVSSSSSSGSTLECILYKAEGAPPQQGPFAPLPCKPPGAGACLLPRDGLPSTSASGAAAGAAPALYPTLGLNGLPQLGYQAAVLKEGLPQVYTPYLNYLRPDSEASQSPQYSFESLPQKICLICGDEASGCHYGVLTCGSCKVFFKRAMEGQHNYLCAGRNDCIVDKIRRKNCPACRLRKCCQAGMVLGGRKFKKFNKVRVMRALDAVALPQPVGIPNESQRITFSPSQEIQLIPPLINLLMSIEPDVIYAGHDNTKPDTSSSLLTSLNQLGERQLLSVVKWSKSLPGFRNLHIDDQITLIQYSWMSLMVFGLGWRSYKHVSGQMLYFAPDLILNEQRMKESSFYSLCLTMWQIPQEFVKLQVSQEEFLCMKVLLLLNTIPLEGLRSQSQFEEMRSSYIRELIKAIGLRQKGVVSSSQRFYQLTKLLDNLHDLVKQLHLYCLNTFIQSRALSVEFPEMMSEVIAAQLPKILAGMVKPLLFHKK
Protocol: C. Progestogen receptor of the uterus of rabbits
Immature rabbits weighing about 1 kg received a cutaneous application of 25 μg of estradiol and the animals were killed 5 days later. The uterus was removed, weighed and homogenized at 0° C. with a polytetrafluoroethylene-glass Potter, in a buffered TS solution [Tris 10. mM, 0.25M of saccharose, HCl-pH of 7.4] with 1 g of tissue per 50 ml of TS. […] The concentration of tied tritiated R (B) was then measured for each incubate by the technique of adsoprtion on carbon-dextran.
as §1, §2

[4] = read-out: % inhibition of effect of Dexamethasone
[5] = second table, read-out: % of inhibition of effect of Dexamethasone

Row | Structure (SMILES) | inhibition at 0.1 µM [1, 4] [%] | inhibition at 0.01 µM [1, 4] [%] | inhibition at 1 µM [1, 4] [%] | other results
1 | CC#C[C@]1(O)CC[C@H]2[C@@H]3CCc4cc(O)ccc4[C@H]3[C@@H](c3ccc(N(C)C)cc3)C[C@@]21C [2 (17 OH), 11β-(4-dimethylaminophenyl)-17α-(prop-1-ynyl)-Δ^1,3,5(10) -estratriene-3,17β-diol] | 91 | 41 |  | % inhibition of effect of Dexamethasone (symbol) [1]: * (A dose of 10^-6 M inhibited the effect of dexamethasone totally)
2 | C/C=C/[C@]1(O)CC[C@H]2[C@@H]3CCC4=C(CCC(=O)C4)[C@H]3[C@@H](c3cccc(OC)c3)C[C@@]21C [6 (17α propenyle), 11β-(3-methoxyphenyl)-17α-(E)-(prop-1-enyl)-Δ^5(10) -estrene-17β-ol-3-one] | 0 | 0 | 56 | 
3 | CC#C[C@]1(O)CC[C@H]2[C@@H]3CCc4cc(O)ccc4[C@H]3[C@@H](c3ccc(N(C)C)cc3)C[C@@]21C [Example 2, 11β-(4-dimethylaminophenyl)-17α-(prop-1-ynyl)-Δ^1,3,5(10) -estratriene-3,17β-diol] |  |  |  | affinity for androgen receptors (in words) [2]: slightly moderate affinity; affinity for progestogen receptors (in words) [3]: very remarkable affinity; opposition to the effect of dexamethasone on tritiated uridine incorporation (in words) [1]: opposed this effect
4 | CC#C[C@]1(O)CC[C@H]2[C@@H]3CCC4=CC(=O)C(=COC(C)=O)CC4=C3[C@@H](c3ccc(N(C)C)cc3)C[C@@]21C [Example 3, 2-(acetyloxymethylene)-11β-(4-dimethylaminophenyl)-17α-(prop-1-ynyl)-Δ^4,9-estradiene-17β-ol-3-one] | 0 | 0 | 60 | 
5 | CC#C[C@]1(O)CC[C@H]2[C@@H]3CCC4=CC(=O)C(=CN5CCOCC5)CC4=C3[C@@H](c3ccc(N(C)C)cc3)C[C@@]21C [Example 4, 2-(4-morpholinylmethylene)-11β-(4-dimethylaminophenyl)-17α-(prop-1-ynyl)-Δ^4,9-estradiene-17β-ol-3-one] | 0 | 0 | 51 | 
6 | CC#C[C@]1(O)CC[C@H]2[C@@H]3CCC4=C(CCC(=O)C4)[C@H]3[C@@H](c3cccc(OC)c3)C[C@@]21C [Example 6, 11β-(3-methoxyphenyl)-17α-(prop-1-ynyl)-Δ^5(10) -estrene-17β-ol-3-one] | 0 | 0 | 68 | 
7 | CC#C[C@]1(O)CC[C@H]2[C@@H]3CCC4=Cc5oncc5CC4=C3[C@@H](c3ccc(N(C)C)cc3)C[C@@]21C [Example 7, 11β-(4-dimethylaminophenyl)-17α-(prop-1-ynyl)-isoxazolo[4,5-b]-Δ^4,9-estradiene-17β-ol] | 27 | 0 |  | % inhibition of effect of Dexamethasone (symbol) [1]: * (A dose of 10^-6 M inhibited the effect of dexamethasone totally)
8 | C#CC[C@]1(O)CC[C@H]2[C@@H]3CCC4=CC(=O)CCC4=C3[C@@H](c3ccc(N(C)C)cc3)C[C@@]21C [Example 31, 11β-[4-(N,N-dimethylamino)-phenyl]-17α-(prop-2-ynyl)-Δ^4,9-estradiene-17β-ol-3-one] |  |  |  | affinity for androgen receptors (in words) [2]: slightly moderate affinity; affinity for progestogen receptors (in words) [3]: very remarkable affinity; inhibition at 1 µM [1, 5]: 99%; inhibition at 0.1 µM [1, 5]: 60%; inhibition at 0.01 µM [1, 5]: 28%; opposition to the effect of dexamethasone on tritiated uridine incorporation (in words) [1]: opposed this effect
9 | C[C@@H]1C[C@H]2[C@@H]3CCC4=CC(=O)C=C[C@]4(C)[C@@]3(F)[C@@H](O)C[C@]2(C)[C@@]1(O)C(=O)CO [dexamethasone, reference compound] |  |  |  | effect on incorporation of tritiated uridine (in words) ([1]; glucocorticoid alone): provoked a lessening of incorporation of tritiated uridine

Source: US5043332A, “Novel 11β-substituted -19-nor-steriods” (priority 1981, dated 1991)
